This note sets out measurements from ChEMBL document CHEMBL3407389, “1,3,4-Thiadiazoles: a potent multi targeted pharmacological scaffold” (Eur J Med Chem, 2015).

The target in experiment [1] is T1, Polyunsaturated fatty acid 5-lipoxygenase (Homo sapiens, UniProt P09917).
T1 sequence (P09917 whole entry): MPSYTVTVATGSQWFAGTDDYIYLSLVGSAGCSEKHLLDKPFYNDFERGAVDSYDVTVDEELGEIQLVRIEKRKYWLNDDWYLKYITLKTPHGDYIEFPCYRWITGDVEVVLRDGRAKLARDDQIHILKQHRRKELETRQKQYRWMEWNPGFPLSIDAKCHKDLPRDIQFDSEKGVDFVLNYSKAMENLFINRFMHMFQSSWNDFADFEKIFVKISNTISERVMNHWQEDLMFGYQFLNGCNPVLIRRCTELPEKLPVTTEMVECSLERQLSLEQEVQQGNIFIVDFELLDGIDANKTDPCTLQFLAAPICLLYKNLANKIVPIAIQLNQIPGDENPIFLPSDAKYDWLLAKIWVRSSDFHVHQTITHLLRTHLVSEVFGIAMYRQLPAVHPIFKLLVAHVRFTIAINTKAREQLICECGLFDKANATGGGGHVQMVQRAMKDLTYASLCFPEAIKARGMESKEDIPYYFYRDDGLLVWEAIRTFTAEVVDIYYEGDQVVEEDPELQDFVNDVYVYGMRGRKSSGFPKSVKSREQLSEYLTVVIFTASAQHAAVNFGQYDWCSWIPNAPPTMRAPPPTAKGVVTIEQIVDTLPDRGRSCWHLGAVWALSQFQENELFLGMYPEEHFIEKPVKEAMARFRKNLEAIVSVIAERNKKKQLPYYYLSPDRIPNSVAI
Description: Inhibition of 5-LO (unknown origin).

For another experiment, the target named is Cyclooxygenase (Homo sapiens, UniProt P35354+P23219). The experiment is described as follows: Inhibition of CO (unknown origin).
The species named for experiment [2] is Mus musculus. The experiment is described as follows: Anticonvulsant activity in mouse assessed as protection against shock-induced seizures by MES test. It is filed as functional.
The species entered for experiment [3] is Mus musculus. The experiment is described as follows: Anticonvulsant activity in mouse by MES test. Format: functional.
The subject of experiment [4] is Helicobacter pylori. Description: Antimicrobial activity against Helicobacter pylori at 1 ug/disc. Format: functional. The following applies: read-out: IZ.
Experiment [5] concerns Helicobacter pylori. Description: Antimicrobial activity against Helicobacter pylori by disc diffusion method. It is filed as functional.
For experiment [6], the system named is Helicobacter pylori. Description: Potency index, ratio of IZ for compound to IZ for metronidazole against Helicobacter pylori by disc diffusion method. It is filed as functional. For orientation: Agar diffusion results depend on both activity and mobility in agar.
In a further experiment the target is Carbonic anhydrase 9 (Homo sapiens, UniProt Q16790). Description: Inhibition of human carbonic anhydrase 9.
The target of a further experiment is Carbonic anhydrase 2 (Homo sapiens, UniProt P00918). The experiment is described as follows: Inhibition of human carbonic anhydrase 2.
A further experiment deals with Carbonic anhydrase 1 (Homo sapiens, UniProt P00915). The experiment is described as follows: Inhibition of human carbonic anhydrase 1.
Sequence of Carbonic anhydrase 1 (P00915 whole entry): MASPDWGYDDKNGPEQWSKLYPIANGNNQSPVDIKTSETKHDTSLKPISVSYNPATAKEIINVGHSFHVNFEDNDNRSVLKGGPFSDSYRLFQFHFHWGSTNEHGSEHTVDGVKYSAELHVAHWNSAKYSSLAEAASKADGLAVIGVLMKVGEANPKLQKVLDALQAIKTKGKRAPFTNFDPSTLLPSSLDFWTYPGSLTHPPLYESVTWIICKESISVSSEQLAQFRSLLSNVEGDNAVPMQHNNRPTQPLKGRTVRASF
For a further experiment, the target named is Carbonic anhydrase (Bos taurus, UniProt P00921+Q95323+P18915+Q3SZX4). The experiment is described as follows: Inhibition of bovine carbonic anhydrase 5. Format: protein assay.
Experiment [7] concerns Human immunodeficiency virus 2. Description: Antiviral activity against HIV2 ROD by MTT assay. Format: functional, organism-based. The following applies: Human immunodeficiency virus 2, ISOLATE ROD. Background: Tetrazolium assays rely on reduction of a dye to a coloured formazan, in cell work by metabolically active cells.
Experiment [8] has as its system Human immunodeficiency virus 1. The experiment is described as follows: Antiviral activity against HIV1 3B by MTT assay. It is filed as functional, organism-based. The following applies: Human immunodeficiency virus 1, 3B.
The subject of experiment [9] is Human immunodeficiency virus 1. The experiment is described as follows: Antiviral activity against HIV1 infected in human MT4 cells. Format: functional, organism-based. The following applies: Human immunodeficiency virus 1, MT4.
In experiment [10] the test system is Human immunodeficiency virus 2. Description: Antiviral activity against HIV2 infected in human MT4 cells. The following applies: Human immunodeficiency virus 2, MT4. Format: functional, organism-based.

Converted amounts (≈) assume the structure as drawn.

On to `CC(C)(C)c1cc(-c2n[nH]c(=S)s2)cc(C(C)(C)C)c1O.C[N+](C)(C)CCO`, for which the values for the IC50 (in [1]; against Cyclooxygenase) were 2800 nM and 0.8 µM, respectively. Regarding `Clc1ccc(Nc2nnc(-c3ccncc3)s2)cc1`, in the experiment filed under Mus musculus [2], the Activity was determined as 100%. Regarding `CNc1nnc(-c2ccccc2-c2ccccc2)s1`, in the experiment listed under Mus musculus [3], the 50% effect level (ED50) was put at a dose of 18 mg/kg.

`Cn1c([N+](=O)[O-])cnc1-c1nnc(S)s1`: in the experiment with Helicobacter pylori [4], the zone of inhibition at 1 µg/disc stood at 7.7 mm. `CC1CN(c2nnc(-c3ncc([N+](=O)[O-])n3C)s2)CC(C)N1` (centres undefined): the “inhibition zone (IZ)” value with Helicobacter pylori [5] was 30.9 mm. For the same compound, in the experiment with Helicobacter pylori [6], the “fold change (FC)” value is recorded as 5.

For the compound `NS(=O)(=O)c1nnc(NS(=O)(=O)c2ccc(-[n+]3ccccc3)cc2)s1`, the Ki on Carbonic anhydrase 9 came to 6 nM; at Carbonic anhydrase 2 it was 0.2 nM; on Carbonic anhydrase 1, 3 nM; at Carbonic anhydrase, 2 nM. With `O=C(COc1ccc2ccccc2c1)NCc1nnc(Nc2ccccc2)s1`, the 50% effective concentration (EC50) in [7] and in experiment [8] was 0.961 µg/mL (≈ 2.46 µM) each time. For `c1ccc(C2=Nn3cnnc3SC2)cc1`, the EC50 in experiment [9] and in experiment [10] was 1.97 µg/mL (≈ 9.11 µM) each time. Turning to `Cc1ccc(S(=O)(=O)NCc2nnc(Nc3ccc(Cl)cc3)s2)cc1`, the EC50 worked out at 23.9 µg/mL (≈ 60.5 µM) in experiment [9] and 9.9 µg/mL (≈ 25.1 µM) in [10].

In the case of `Cc1ncc([N+](=O)[O-])n1CCO` [METRONIDAZOLE], in the experiment on Helicobacter pylori [5], the “inhibition zone (IZ)” value is given as 6 mm. For the same compound, in the experiment with Helicobacter pylori [4], the zone of inhibition at 1 µg/disc came to 16.3 mm.

As a reminder, the IC50 is the concentration needed to halve the response being measured. Read a low IC50 as inhibition by little substance. For orientation: ED50 means the midpoint of the dose-response relation. A low value points to an effect at a small dose. As usually defined, the Ki is the dissociation constant of the complex between target and ligand, obtained from inhibition or displacement. High values mean weaker binding, low ones tighter binding. Broadly, the EC50 is the concentration that produces a half-maximal response. Higher therefore signals a less potent agent.
